Data on 41 compounds can be found in patent US9556201B2, “Bicyclic pyridines and analogs as sirtuin modulators” (GLAXOSMITHKLINE LLC, priority 2009, dated 2017).

For this assay, the target named is T1, SIRT1 (Homo sapiens, UniProt Q96EB6).
T1 sequence (Q96EB6 1-747): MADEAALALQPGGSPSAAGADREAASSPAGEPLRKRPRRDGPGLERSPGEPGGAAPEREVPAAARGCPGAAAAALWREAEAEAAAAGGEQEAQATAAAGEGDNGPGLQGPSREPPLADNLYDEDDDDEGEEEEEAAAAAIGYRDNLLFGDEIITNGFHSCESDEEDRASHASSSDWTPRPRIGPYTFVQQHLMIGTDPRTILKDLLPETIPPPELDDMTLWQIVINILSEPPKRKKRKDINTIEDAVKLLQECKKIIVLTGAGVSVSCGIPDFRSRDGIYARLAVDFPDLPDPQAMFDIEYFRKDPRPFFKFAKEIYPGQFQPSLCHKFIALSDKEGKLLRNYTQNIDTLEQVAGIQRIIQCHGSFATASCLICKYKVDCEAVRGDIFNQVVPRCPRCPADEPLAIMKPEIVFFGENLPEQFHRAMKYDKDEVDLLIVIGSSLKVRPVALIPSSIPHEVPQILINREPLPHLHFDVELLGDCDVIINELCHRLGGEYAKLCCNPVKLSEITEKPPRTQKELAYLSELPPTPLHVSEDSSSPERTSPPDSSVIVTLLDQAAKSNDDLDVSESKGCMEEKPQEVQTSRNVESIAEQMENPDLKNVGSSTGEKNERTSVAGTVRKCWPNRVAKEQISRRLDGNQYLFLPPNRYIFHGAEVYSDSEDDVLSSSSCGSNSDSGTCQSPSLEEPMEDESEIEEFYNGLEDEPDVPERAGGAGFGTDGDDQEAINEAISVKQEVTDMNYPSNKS
Nature of the assay: Mass spectrometry based assay to identify modulators of SIRT1 activity (deacetylation of p53-based acetylated peptide substrate). To be noted: for Emax: 25 min, read-out: % FOLD ACT. (percent maximum fold activation); for Emax / EC1.5: SIRT1 activation. It counts as biochemical. An outline of the steps:
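Deacetylation of a modified p53 acetyl-lysine peptide ([…], 5TMR-labelled, Nle for Met) by 10 nM N-His SIRT1 with 120 μM βNAD+, pH 8, 25 min, 25 °C. Substrate and product masses measured by MS after formic acid quench; nicotinamide defines maximal inhibition.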

Turning to `O=C(Nc1ncccc1F)N1CCOc2ccc(-c3cccc(C(F)(F)F)c3)nc21` [Compound 568], the Emax is greater than 200% and the EC1.5 result was “B (EC1.5 1-25 μM)”.

Turning to `O=C(Nc1ccncc1)N1CCCc2ccc(-c3cccc(F)c3)nc21` [Compound 648], the Emax was greater than 200% and the EC1.5 entry is “A (EC1.5<1.0 μM)”.

Take `Cc1ccc(NC(=O)N2CCOc3ccc(-c4cccc(C(F)(F)F)c4)nc32)cn1` [Compound 554]: the Emax was greater than 200% and the EC1.5 entry is on record as “A (EC1.5<1.0 μM)”.

For `O=C(Nc1cccnc1)N1CCCC(F)(F)c2ccc(-c3cccc(Cl)c3)nc21` [Compound 771], the EC1.5 (concentration giving 1.5-fold activation) is greater than 25 µM and the Emax is no more than 200%.

With `Cc1cccnc1NC(=O)N1CCOc2ccc(-c3cccc(C(F)(F)F)c3)nc21` [Compound 569], the Emax is no more than 200% and the EC1.5 entry is given as “C (EC1.5>25 μM)”.

As to `Cc1cc(NC(=O)N2CCCOc3ccc(-c4ccnc(C)c4)nc32)ccn1` [Compound 656], the Emax was greater than 200% and the EC1.5 result is recorded as “B (EC1.5 1-25 μM)”.

On to `COc1cc(NC(=O)N2CCCOc3ccc(-c4cccc(Cl)c4)nc32)ncn1` [Compound 872], for which the EC1.5 (concentration giving 1.5-fold activation) was less than 1 µM and the Emax was greater than 200%.

On to `Cc1cnc(CNC(=O)N2CCOc3ccc(-c4cccc(C(F)(F)F)c4)nc32)cn1` [Compound 504], for which the Emax is no more than 200% and the EC1.5 result was “C (EC1.5>25 μM)”.

Regarding `O=C(Nc1cncc(OCC(O)CO)n1)N1CCCOc2ccc(-c3cccc(Cl)c3)nc21` (stereo not shown) [Compound 858], the EC1.5 (concentration giving 1.5-fold activation) is less than 1 µM and the Emax is greater than 200%.

Take `Cc1cc(NC(=O)N2CCOc3ncc(-c4cccc(C(F)(F)F)c4)nc32)cc(C)n1` [Compound 726]: the EC1.5 (concentration giving 1.5-fold activation) is less than 1 µM and the Emax is greater than 200%.

As to `CCN1CCCN(C(=O)Nc2ccncn2)c2nc(-c3cccc(Cl)c3)ccc21` [Compound 809], the EC1.5 (concentration giving 1.5-fold activation) lay within 1 to 25 µM and the Emax is greater than 200%.

Take `Cc1csc(NC(=O)N2CCC(C)(C)C(=O)c3ccc(-c4cccc(Cl)c4)nc32)n1` [Compound 837]: the EC1.5 (concentration giving 1.5-fold activation) lay in the range of 1 to 25 µM and the Emax was no more than 200%.

As for `O=C(Nc1ccncc1)N1CCCC(F)(F)c2ccc(-c3cccc(Cl)c3)nc21` [Compound 770], the EC1.5 (concentration giving 1.5-fold activation) is greater than 25 µM and the Emax is no more than 200%.

On to `Cc1cc(NC(=O)N2CCOc3c(N4CCNCC4)nc(-c4cccc(F)c4)nc32)cc(C)n1` [Compound 752], for which the EC1.5 (concentration giving 1.5-fold activation) lay within 1 to 25 µM and the Emax was greater than 200%.

Take `O=C1CCCN(C(=O)Nc2cccnc2)c2nc(-c3cccc(C(F)(F)F)c3)ccc21` [Compound 829]: the EC1.5 (concentration giving 1.5-fold activation) was 1 to 25 µM and the Emax was greater than 200%.

Turning to `Cc1cncc(NC(=O)N2CC(C)(C)Oc3ccc(-c4cccc(CN5CCCC5)c4)nc32)c1` [Compound 629, 2,2-dimethyl-N-(5-methylpyridin-3-yl)-6-(3-(pyrrolidin-1-ylmethyl)phenyl)-2H-pyrido[3,2-b][1,4]oxazine-4(3H)-carboxamide], the Emax was greater than 200% and the EC1.5 result is listed as “B (EC1.5 1-25 μM)”.

As to `Cc1csc(NC(=O)N2CCCOc3ccc(-c4cccc(N5CCCC5)c4)nc32)n1` [Compound 628], the Emax was no more than 200% and the EC1.5 entry was “B (EC1.5 1-25 μM)”.

Turning to `Cc1csc(NC(=O)N2CCOc3cnc(-c4cccc(C(F)(F)F)c4)nc32)n1` [Compound 709, N-(4-methylthiazol-2-yl)-2-(3-(trifluoromethyl)phenyl)-6H-pyrimido[5,4-b][1,4]oxazine-8(7H)-carboxamide], the EC1.5 (concentration giving 1.5-fold activation) was greater than 25 µM and the Emax is no more than 200%.

Take `O=C(Nc1ccncc1)N1CCCOc2ccc(-c3cccc(Cl)c3)nc21` [Compound 856]: the EC1.5 (concentration giving 1.5-fold activation) lay in the range of 1 to 25 µM and the Emax is greater than 200%.

For the compound `CN1C(=O)CN(C(=O)Nc2ncco2)c2nc(-c3cccc(C(F)(F)F)c3)ccc21` [Compound 523], the Emax was no more than 200% and the EC1.5 result is “C (EC1.5>25 μM)”.

On to `Cc1cc(NC(=O)N2CCOc3ccc(-c4ccnn4C)nc32)cc(C)n1` [Compound 575], for which the Emax was greater than 200% and the EC1.5 result is recorded as “B (EC1.5 1-25 μM)”.

On to `Cc1cnc(NC(=O)N2CCN(C)c3ccc(-c4cccc(C(F)(F)F)c4)nc32)s1` [Compound 530], for which the Emax was no more than 200% and the EC1.5 result is reported as “B (EC1.5 1-25 μM)”.

As for `O=C(Nc1ccncn1)N1CCCOc2ccc(-c3cccc(F)c3)nc21` [Compound 580], the Emax was greater than 200% and the EC1.5 result is given as “B (EC1.5 1-25 μM)”.

As for `Cc1cc(NC(=O)N2CCCOc3ccc(-c4cccc(F)c4)nc32)ccn1` [Compound 582], the Emax was greater than 200% and the EC1.5 entry is “B (EC1.5 1-25 μM)”.

In the case of `COc1nccc(NC(=O)N2CCCCc3ccc(-c4cccc(C(F)(F)F)c4)nc32)n1` [Compound 811], the EC1.5 (concentration giving 1.5-fold activation) lay in the range of 1 to 25 µM and the Emax was no more than 200%.

For `O=C(Nc1ncc(F)cc1F)N1CCOc2ccc(-c3cccc(C(F)(F)F)c3)nc21` [Compound 567], the Emax was greater than 200% and the EC1.5 entry was “B (EC1.5 1-25 μM)”.

Turning to `CN1C(=O)CN(C(=O)Nc2ncn[nH]2)c2nc(-c3cccc(C(F)(F)F)c3)ccc21` [Compound 524], the Emax is no more than 200% and the EC1.5 entry is given as “C (EC1.5>25 μM)”.

Consider `O=C(Nc1ccncn1)N1CCCOc2ccc(-c3cccc(Cl)c3)nc21` [Compound 625], for which the Emax was greater than 200% and the EC1.5 entry was “A (EC1.5<1.0 μM)”.

For `Cc1cc(-c2ccc3c(n2)N(C(=O)Nc2ccncn2)CCCO3)ccn1` [Compound 674], the Emax is greater than 200% and the EC1.5 result was “B (EC1.5 1-25 μM)”.

`COc1cccc(-c2ccc3c(n2)N(C(=O)Nc2ccncn2)CCO3)c1` [Compound 515]: the Emax is greater than 200% and the EC1.5 entry is recorded as “B (EC1.5 1-25 μM)”.

Turning to `O=C(Nc1ncc(CN2CCCC2)s1)N1CCOc2ccc(-c3cccc(C(F)(F)F)c3)nc21` [Compound 505, N-(5-(pyrrolidin-1-ylmethyl)thiazol-2-yl)-6-(3-(trifluoromethyl)phenyl)-2H-pyrido[3,2-b][1,4]oxazine-4(3H)-carboxamide], the Emax was no more than 200% and the EC1.5 entry is “C (EC1.5>25 μM)”.

In the case of `CC1CCN(C(=O)Nc2cncnc2)c2nc(-c3cccc(C(F)(F)F)c3)ccc21` (stereo not shown) [Compound 802], the EC1.5 (concentration giving 1.5-fold activation) was less than 1 µM and the Emax is greater than 200%.

In the case of `Cc1csc(NC(=O)N2CC(=O)N(C)c3ccc(-c4cccc(C(F)(F)F)c4)nc32)n1` [Compound 521], the Emax is no more than 200% and the EC1.5 entry is on record as “B (EC1.5 1-25 μM)”.

`O=C(Nc1ccncc1)N1CCOc2ccc(-c3cccc(Cl)c3)nc21` [Compound 541, 6-(3-chlorophenyl)-N-(pyridin-4-yl)-2H-pyrido[3,2-b][1,4]oxazine-4(3H)-carboxamide]: the Emax was greater than 200% and the EC1.5 entry is “A (EC1.5<1.0 μM)”.

Consider `O=C(Nc1nccs1)N1CCOc2ccc(-c3cccc(C(F)(F)F)c3)nc21` [Compound 500, N-(thiazol-2-yl)-6-(3-(trifluoromethyl)phenyl)-2H-pyrido[3,2-b][1,4]oxazine-4(3H)-carboxamide], for which the Emax was greater than 200% and the EC1.5 result is on record as “A (EC1.5<1.0 μM)”.

Turning to `O=C(Nc1ccccn1)N1CCCC(F)(F)c2ccc(-c3cccc(Cl)c3)nc21` [Compound 778], the EC1.5 (concentration giving 1.5-fold activation) was greater than 25 µM and the Emax is no more than 200%.

For the compound `CCN1CCCN(C(=O)Nc2cc(C)cc(C)n2)c2nc(-c3cccc(Cl)c3)ccc21` [Compound 806], the EC1.5 (concentration giving 1.5-fold activation) is greater than 25 µM and the Emax is no more than 200%.

As for `O=C(NC1(c2ccccn2)CC1)N1CCOc2ccc(-c3cccc(C(F)(F)F)c3)nc21` [Compound 633, N-(1-(pyridin-2-yl)cyclopropyl)-6-(3-(trifluoromethyl)phenyl)-2H-pyrido[3,2-b][1,4]oxazine-4(3H)-carboxamide], the Emax was no more than 200% and the EC1.5 result was “C (EC1.5>25 μM)”.

Regarding `Cc1cc(-c2ccc3c(n2)N(C(=O)Nc2nc(C)cs2)CCCO3)ccn1` [Compound 676], the Emax was greater than 200% and the EC1.5 entry was “B (EC1.5 1-25 μM)”.

For `O=C(Nc1cccc(OC[C@H](O)CO)n1)N1CCCC(F)(F)c2ccc(-c3cccc(Cl)c3)nc21` [Compound 781], the EC1.5 (concentration giving 1.5-fold activation) is 1 to 25 µM and the Emax was greater than 200%.

On to `Cn1ccc(NC(=O)N2CCCOc3ccc(-c4cccc(Cl)c4)nc32)n1` [Compound 705], for which the EC1.5 (concentration giving 1.5-fold activation) fell in the range of 1 to 25 µM and the Emax is greater than 200%.
